Laboratory results reported in patent US10488417B2, “Compounds for use as imaging agents” (United Arab Emirates University, priority 2014, dated 2019).

Target: T1, α-synuclein fibrils (Homo sapiens, UniProt P37840)
T1 construct: GST (N, cleaved yes); made in house; host or cells: E. coli BL21
Experiment: Congo red binding assay of aged α-synuclein
Format: biochemical
Settings: all tested concentrations; fibril control shifts from 490 to 508 nm
Procedure: CR is a dye with high affinity for amyloid fibrils. Congo red (20 μM) was prepared in PBS (pH 7.4) and filtered through a 0.45 μm filter. Samples of α-synuclein (5 μM), aged alone or with the compounds at different molar ratios, were mixed with Congo red (final concentration 5 μM), and the reaction samples were thoroughly mixed. The UV absorbance spectrum was recorded between 400 and 600 nm in a spectrophotometer (DU-800, Beckman-Coulter) using 10-mm quartz cuvettes (HellmaAnalytics-Germany). Congo red alone was used as blank.

## CC(C)=CCC[C@](C)(O[C@@H]1O[C@H](CO[C@@H]2O[C@H](CO)[C@@H](O)[C@H](O)[C@H]2O)[C@@H](O)[C@H](O)[C@H]1O)[C@H]1CC[C@]2(C)[C@@H]1[C@H](O)C[C@@H]1[C@@]3(C)CC[C@H](O[C@@H]4O[C@H](CO)[C@@H](O)[C@H](O)[C@H]4O[C@@H]4O[C@H](CO)[C@@H](O)[C@H](O)[C@H]4O)C(C)(C)[C@@H]3CC[C@]12C [Gn Rb1, ginsenoside Rb1]
  absorption maximum of Congo red bound to α-synuclein samples: ≤ 495 nm
